Source: patent US11083725B2 (priority 2014, dated 2021)

Tested on: NHBE cells
Assay: Biolog metabolic array: substrate use by NHBE cells with or without CA09 infection
Assay type: cell-based, human
Settings: for Substrate use, 590 nm absorbance normalized to zero hour, 0 hr: Biolog PMM2, 0 hr; for Substrate use, 590 nm absorbance normalized to zero hour, 1 hr: Biolog PMM2, 1 hr; for Substrate use, 590 nm absorbance normalized to zero hour, 5 hr: Biolog PMM2, 5 hr; for Substrate use, 590 nm absorbance normalized to zero hour, 7 hr: Biolog PMM2, 7 hr
[1] = Control (uninfected) NHBE cells
[2] = Virus (CA09-infected, MOI 1) NHBE cells
[3] = Virus: CA09-infected NHBE cells, MOI 1, Biolog PMM2
[4] = Virus (CA09-infected NHBE cells, MOI 1)

In the case of `OC[C@@]12OC[C@@H](O1)[C@@H](O)[C@@H](O)[C@@H]2O` [Sedoheptulosan], the “590 nm absorbance normalized to zero hour (substrate use), 0 hr” value [1] is reported as 1.00, the “590 nm absorbance normalized to zero hour (substrate use), 1 hr” value [1] is reported as 0.31 and the “590 nm absorbance normalized to zero hour (substrate use), 2 hr” value (“590 nm absorbance normalized … 2 hr” below) [1] is reported as 0.41. For the same molecule, the “590 nm absorbance normalized to zero hour (substrate use), 3 hr” value (from here on “590 nm absorbance normalized … 3 hr”) [1] was 0.44, the “590 nm absorbance normalized to zero hour (substrate use), 4 hr” value (shortened to “590 nm absorbance normalized … 4 hr”) [1] was 0.49 and the “590 nm absorbance normalized to zero hour (substrate use), 6 hr” value (“590 nm absorbance normalized … 6 hr” below) [1] was 0.56. For the same molecule, the “590 nm absorbance normalized to zero hour (substrate use), 8 hr” value (from here on “590 nm absorbance normalized … 8 hr”) [1] was 0.71, the “590 nm absorbance normalized to zero hour (substrate use), 9 hr” value (shortened to “590 nm absorbance normalized … 9 hr”) [1] was 0.82 and the “590 nm absorbance normalized to zero hour (substrate use), 10 hr” value (“590 nm absorbance normalized … 10 hr” below) [1] was 0.89. For the same molecule, the “590 nm absorbance normalized to zero hour (substrate use), 11 hr” value (shortened to “590 nm absorbance normalized … 11 hr”) [1] was 1.46, the “Substrate use, 590 nm absorbance normalized to zero hour, 0 hr” value [1] was 1.00 and the “Substrate use, 590 nm absorbance normalized to zero hour, 1 hr” value [1] was 0.31. For the same molecule, the “Substrate use, 590 nm absorbance normalized to zero hour, 5 hr” value [1] was 0.61, the “Substrate use, 590 nm absorbance normalized to zero hour, 7 hr” value [1] was 0.71 and the “590 nm absorbance normalized to zero hour (substrate use), 0 hr” value [2] was 1.00. For the same molecule, the “590 nm absorbance normalized to zero hour (substrate use), 1 hr” value [2] was 1.49, the “590 nm absorbance normalized … 2 hr” value [2] was 1.48 and the “590 nm absorbance normalized … 3 hr” value [2] was 1.46. For the same molecule, the “590 nm absorbance normalized … 4 hr” value [2] was 1.43, the “590 nm absorbance normalized to zero hour (substrate use), 5 hr” value [2] was 1.30 and the “590 nm absorbance normalized … 6 hr” value [2] was 1.36. The “590 nm absorbance normalized to zero hour (substrate use), 7 hr” value [2] was 1.39, the “590 nm absorbance normalized … 8 hr” value [2] was 1.49 and the “590 nm absorbance normalized … 9 hr” value [2] was 1.58. The “590 nm absorbance normalized … 10 hr” value [2] was 1.48, the “590 nm absorbance normalized … 11 hr” value [2] was 1.65 and the “590 nm absorbance normalized to zero hour (substrate use), 0 hr” value [3] was 1.00. The “590 nm absorbance normalized to zero hour (substrate use), 1 hr” value [3] was 1.49, the “590 nm absorbance normalized … 2 hr” value [3] was 1.48 and the “590 nm absorbance normalized … 3 hr” value [3] was 1.46. For the same molecule, the “590 nm absorbance normalized … 4 hr” value [3] was 1.43, the “590 nm absorbance normalized to zero hour (substrate use), 5 hr” value [3] was 1.30 and the “590 nm absorbance normalized … 6 hr” value [3] was 1.36. The “590 nm absorbance normalized to zero hour (substrate use), 7 hr” value [3] was 1.39, the “590 nm absorbance normalized … 8 hr” value [3] was 1.49 and the “590 nm absorbance normalized … 9 hr” value [3] was 1.58. For the same molecule, the “590 nm absorbance normalized … 10 hr” value [3] was 1.48 and the “590 nm absorbance normalized … 11 hr” value [3] was 1.65.
With `CC(O)C(C)O` (stereo not drawn) [2,3-Butanediol] the “590 nm absorbance normalized to zero hour (substrate use), 1 hr” value [1] was 1.23, the “590 nm absorbance normalized … 2 hr” value [1] was 1.54 and the “590 nm absorbance normalized … 3 hr” value [1] was 1.61. For the same molecule, the “590 nm absorbance normalized … 4 hr” value [1] was 1.58, the “590 nm absorbance normalized … 6 hr” value [1] was 0.83 and the “590 nm absorbance normalized … 8 hr” value [1] was 1.93. The “590 nm absorbance normalized … 9 hr” value [1] was 2.09, the “590 nm absorbance normalized … 10 hr” value [1] was 2.19 and the “590 nm absorbance normalized … 11 hr” value [1] was 2.33. For the same molecule, the “Substrate use, 590 nm absorbance normalized to zero hour, 1 hr” value [1] was 1.23, the “Substrate use, 590 nm absorbance normalized to zero hour, 5 hr” value [1] was 1.83 and the “Substrate use, 590 nm absorbance normalized to zero hour, 7 hr” value [1] was 1.84. The “590 nm absorbance normalized to zero hour (substrate use), 1 hr” value [4] was 1.66, the “590 nm absorbance normalized … 2 hr” value [4] was 1.65 and the “590 nm absorbance normalized … 3 hr” value [4] was 0.31. For the same molecule, the “590 nm absorbance normalized … 4 hr” value [4] was 0.33, the “590 nm absorbance normalized to zero hour (substrate use), 5 hr” value [4] was 0.38 and the “590 nm absorbance normalized … 6 hr” value [4] was 0.40. For the same molecule, the “590 nm absorbance normalized to zero hour (substrate use), 7 hr” value [4] was 0.42, the “590 nm absorbance normalized … 8 hr” value [4] was 0.43 and the “590 nm absorbance normalized … 9 hr” value [4] was 0.45. For the same molecule, the “590 nm absorbance normalized … 10 hr” value [4] was 0.42, the “590 nm absorbance normalized … 11 hr” value [4] was 0.39 and the “590 nm absorbance normalized to zero hour (substrate use), 1 hr” value [3] was 1.66. For the same molecule, the “590 nm absorbance normalized … 2 hr” value [3] was 1.65, the “590 nm absorbance normalized … 3 hr” value [3] was 0.31 and the “590 nm absorbance normalized … 4 hr” value [3] was 0.33. The “590 nm absorbance normalized to zero hour (substrate use), 5 hr” value [3] was 0.38, the “590 nm absorbance normalized … 6 hr” value [3] was 0.40 and the “590 nm absorbance normalized to zero hour (substrate use), 7 hr” value [3] was 0.42. The “590 nm absorbance normalized … 8 hr” value [3] was 0.43, the “590 nm absorbance normalized … 9 hr” value [3] was 0.45 and the “590 nm absorbance normalized … 10 hr” value [3] was 0.42. The “590 nm absorbance normalized … 11 hr” value [3] was 0.39.
In the case of `CC(O)C(=O)O` [L-Lactic Acid (DL)], the “590 nm absorbance normalized to zero hour (substrate use), 0 hr” value [1] is reported as 1.00, the “590 nm absorbance normalized to zero hour (substrate use), 1 hr” value [1] is reported as 1.56 and the “590 nm absorbance normalized … 2 hr” value [1] is reported as 2.01. The “590 nm absorbance normalized … 3 hr” value [1] was 2.57, the “590 nm absorbance normalized … 4 hr” value [1] was 2.66 and the “590 nm absorbance normalized … 6 hr” value [1] was 1.75. For the same molecule, the “590 nm absorbance normalized … 8 hr” value [1] was 3.21, the “590 nm absorbance normalized … 9 hr” value [1] was 3.56 and the “590 nm absorbance normalized … 10 hr” value [1] was 3.63. For the same molecule, the “590 nm absorbance normalized … 11 hr” value [1] was 4.70, the “Substrate use, 590 nm absorbance normalized to zero hour, 0 hr” value [1] was 1.00 and the “Substrate use, 590 nm absorbance normalized to zero hour, 1 hr” value [1] was 1.56. For the same molecule, the “Substrate use, 590 nm absorbance normalized to zero hour, 5 hr” value [1] was 3.09, the “Substrate use, 590 nm absorbance normalized to zero hour, 7 hr” value [1] was 2.97 and the “590 nm absorbance normalized to zero hour (substrate use), 0 hr” value [2] was 1.00. For the same molecule, the “590 nm absorbance normalized to zero hour (substrate use), 1 hr” value [2] was 1.33, the “590 nm absorbance normalized … 2 hr” value [2] was 1.66 and the “590 nm absorbance normalized … 3 hr” value [2] was 2.04. For the same molecule, the “590 nm absorbance normalized … 4 hr” value [2] was 2.11, the “590 nm absorbance normalized to zero hour (substrate use), 5 hr” value [2] was 2.48 and the “590 nm absorbance normalized … 6 hr” value [2] was 2.68. For the same molecule, the “590 nm absorbance normalized to zero hour (substrate use), 7 hr” value [2] was 2.86, the “590 nm absorbance normalized … 8 hr” value [2] was 3.04 and the “590 nm absorbance normalized … 9 hr” value [2] was 3.36. The “590 nm absorbance normalized … 10 hr” value [2] was 3.49, the “590 nm absorbance normalized … 11 hr” value [2] was 3.91 and the “590 nm absorbance normalized to zero hour (substrate use), 0 hr” value [3] was 1.00. For the same molecule, the “590 nm absorbance normalized to zero hour (substrate use), 1 hr” value [3] was 1.33, the “590 nm absorbance normalized … 2 hr” value [3] was 1.66 and the “590 nm absorbance normalized … 3 hr” value [3] was 2.04. For the same molecule, the “590 nm absorbance normalized … 4 hr” value [3] was 2.11, the “590 nm absorbance normalized to zero hour (substrate use), 5 hr” value [3] was 2.48 and the “590 nm absorbance normalized … 6 hr” value [3] was 2.68. For the same molecule, the “590 nm absorbance normalized to zero hour (substrate use), 7 hr” value [3] was 2.86, the “590 nm absorbance normalized … 8 hr” value [3] was 3.04 and the “590 nm absorbance normalized … 9 hr” value [3] was 3.36. The “590 nm absorbance normalized … 10 hr” value [3] was 3.49 and the “590 nm absorbance normalized … 11 hr” value [3] was 3.91.
With `COC(=O)[C@@H](C)O` [Methyl D-Lactate] the “590 nm absorbance normalized to zero hour (substrate use), 1 hr” value [1] was 1.36, the “590 nm absorbance normalized … 2 hr” value [1] was 1.52 and the “590 nm absorbance normalized … 3 hr” value [1] was 2.08. The “590 nm absorbance normalized … 4 hr” value [1] was 2.04, the “590 nm absorbance normalized … 6 hr” value [1] was 1.34 and the “590 nm absorbance normalized … 8 hr” value [1] was 2.16. For the same molecule, the “590 nm absorbance normalized … 9 hr” value [1] was 2.39, the “590 nm absorbance normalized … 10 hr” value [1] was 2.41 and the “590 nm absorbance normalized … 11 hr” value [1] was 2.99. For the same molecule, the “Substrate use, 590 nm absorbance normalized to zero hour, 1 hr” value [1] was 1.36, the “Substrate use, 590 nm absorbance normalized to zero hour, 5 hr” value [1] was 2.26 and the “Substrate use, 590 nm absorbance normalized to zero hour, 7 hr” value [1] was 2.14. For the same molecule, the “590 nm absorbance normalized to zero hour (substrate use), 1 hr” value [2] was 2.10, the “590 nm absorbance normalized … 2 hr” value [2] was 2.49 and the “590 nm absorbance normalized … 3 hr” value [2] was 2.89. For the same molecule, the “590 nm absorbance normalized … 4 hr” value [2] was 2.64, the “590 nm absorbance normalized to zero hour (substrate use), 5 hr” value [2] was 2.75 and the “590 nm absorbance normalized … 6 hr” value [2] was 2.94. The “590 nm absorbance normalized to zero hour (substrate use), 7 hr” value [2] was 3.10, the “590 nm absorbance normalized … 8 hr” value [2] was 3.20 and the “590 nm absorbance normalized … 9 hr” value [2] was 3.46. For the same molecule, the “590 nm absorbance normalized … 10 hr” value [2] was 3.46, the “590 nm absorbance normalized … 11 hr” value [2] was 3.61 and the “590 nm absorbance normalized to zero hour (substrate use), 1 hr” value [3] was 2.10. The “590 nm absorbance normalized … 2 hr” value [3] was 2.49, the “590 nm absorbance normalized … 3 hr” value [3] was 2.89 and the “590 nm absorbance normalized … 4 hr” value [3] was 2.64. For the same molecule, the “590 nm absorbance normalized to zero hour (substrate use), 5 hr” value [3] was 2.75, the “590 nm absorbance normalized … 6 hr” value [3] was 2.94 and the “590 nm absorbance normalized to zero hour (substrate use), 7 hr” value [3] was 3.10. The “590 nm absorbance normalized … 8 hr” value [3] was 3.20, the “590 nm absorbance normalized … 9 hr” value [3] was 3.46 and the “590 nm absorbance normalized … 10 hr” value [3] was 3.46. The “590 nm absorbance normalized … 11 hr” value [3] was 3.61.
